Values quoted from earlier work in patent publication US20110165241A1, “BAZEDOXIFENE FORMULATIONS WITH ANTIOXIDANTS” (Wyeth LLC, priority 2009, published 2011).

Experiments:
[1] = tested on: ovariectomized rat model of osteopenia; settings: in vivo
[2] = tested on: MCF-7 cell line (human breast cancer cell line)
uterine response = settings: in vivo

Cc1c(-c2ccc(O)cc2)n(Cc2ccc(OCCN3CCCCCC3)cc2)c2ccc(O)cc12 [bazedoxifene, 1-[4-(2-azepan-1-yl-ethoxy)-benzyl]-2-(4-hydroxy-phenyl)-3-methyl-1H-indol-5-ol]
effect on bone loss and cholesterol [1]: estrogen agonist-like effect in preventing bone loss and reducing cholesterol
estrogen receptor activity in MCF-7 cells [2]: behaves as an estrogen antagonist
stimulation of uterine response (uterine response): little or no stimulation of uterine response
